Reference: the supplement of paper PMC10307832

How the values were obtained:
Assay in all cases: relative viability (nuclei count vs DMSO), 5 days (fraction); higher = more cells survive
[1] = tested on: 201T
Procedure, shortened: (§1)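 Nuclei were stained with Hoechst during a one-step fixation (final 0.05% Triton X-100, 1% formaldehyde, 1 ug/ml Hoechst) carried out 5 days after dosing, then counted on 4× images. The cells, lung cancer lines in 1536-well plates, had been dosed by pin tool the day after seeding with one drug alone or a fixed anchor-drug dose plus five library-drug doses (not always all listed) in √10 steps. Relative viability is the nuclei count in treated wells divided by that in vehicle wells, and each value is the median of duplicate plates.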

[2] = tested on: BEN
Procedure, shortened: as §1

[3] = tested on: COR-L 105
Procedure, shortened: as §1

[4] = tested on: EKVX
Procedure, shortened: as §1

[5] = tested on: EPLC-272H
Procedure, shortened: as §1

[6] = tested on: H3255
Procedure, shortened: as §1

[7] = tested on: HCC-44
Procedure, shortened: as §1

[8] = tested on: HCC-827
Procedure, shortened: as §1

[9] = tested on: HOP-62
Procedure, shortened: as §1

[10] = tested on: LCLC-97TM1
Procedure, shortened: as §1

[11] = tested on: LOU-NH91
Procedure, shortened: as §1

[12] = tested on: LU99A
Procedure, shortened: as §1

[13] = tested on: NCI-H1395
Procedure, shortened: as §1

[14] = tested on: NCI-H1437
Procedure, shortened: as §1

[15] = tested on: NCI-H1666
Procedure, shortened: as §1

[16] = tested on: NCI-H1975
Procedure, shortened: as §1

[17] = tested on: NCI-H2085
Procedure, shortened: as §1

[18] = tested on: NCI-H2087
Procedure, shortened: as §1

[19] = tested on: NCI-H2126
Procedure, shortened: as §1

[20] = tested on: NCI-H2342
Procedure, shortened: as §1

[21] = tested on: NCI-H358
Procedure, shortened: as §1

[22] = tested on: NCI-H647
Procedure, shortened: as §1

[23] = tested on: PC-3 [JPC-3]
Procedure, shortened: as §1

[24] = tested on: SW 1573
Procedure, shortened: as §1

Compound `Clc1ccc(Nc2nnc(Cc3ccncc3)c3ccccc23)cc1` [Vatalanib] + COc1cccc2cc(-c3nc([C@H]4CC[C@H](C(=O)O)CC4)n4ncnc(N)c34)[nH]c12 [OSI-027] (partner 0.5 µM) has a relative viability ([1]; first compound 0.04 µM) of 0.759, a relative viability ([1]; first compound 0.1265 µM) of 0.698 and a relative viability ([1]; first compound 0.4 µM) of 0.889. It also gave a relative viability ([1]; first compound 1.265 µM) of 0.657, a relative viability ([1]; first compound 4 µM) of 0.666 and a relative viability ([2]; first compound 0.04 µM) of 0.297. It also gave a relative viability ([2]; first compound 0.1265 µM) of 0.314, a relative viability ([2]; first compound 0.4 µM) of 0.31 and a relative viability ([2]; first compound 1.265 µM) of 0.295. It also gave a relative viability ([2]; first compound 4 µM) of 0.281, a relative viability ([3]; first compound 0.04 µM) of 0.694 and a relative viability ([3]; first compound 0.1265 µM) of 0.59. For the same compound, the relative viability ([3]; first compound 0.4 µM) was 0.721, the relative viability ([3]; first compound 1.265 µM) was 0.721 and the relative viability ([3]; first compound 4 µM) was 0.561. The relative viability ([4]; first compound 0.04 µM) was 0.743, the relative viability ([4]; first compound 0.1265 µM) was 0.663 and the relative viability ([4]; first compound 0.4 µM) was 0.663. The relative viability ([4]; first compound 4 µM) was 0.643, the relative viability ([5]; first compound 0.04 µM) was 0.268 and the relative viability ([5]; first compound 0.1265 µM) was 0.259. For the same compound, the relative viability ([5]; first compound 0.4 µM) was 0.323, the relative viability ([5]; first compound 1.265 µM) was 0.301 and the relative viability ([5]; first compound 4 µM) was 0.303. The relative viability ([6]; first compound 0.04 µM) was 0.566, the relative viability ([6]; first compound 0.1265 µM) was 0.529 and the relative viability ([6]; first compound 0.4 µM) was 0.51. It also gave a relative viability ([6]; first compound 1.265 µM) of 0.584, a relative viability ([6]; first compound 4 µM) of 0.504 and a relative viability ([7]; first compound 0.04 µM) of 0.524. For the same compound, the relative viability ([7]; first compound 0.1265 µM) was 0.652, the relative viability ([7]; first compound 0.4 µM) was 0.438 and the relative viability ([7]; first compound 1.265 µM) was 0.439. It also gave a relative viability ([7]; first compound 4 µM) of 0.355, a relative viability ([8]; first compound 0.04 µM) of 0.818 and a relative viability ([8]; first compound 0.1265 µM) of 0.729. The relative viability ([8]; first compound 0.4 µM) was 0.739, the relative viability ([8]; first compound 1.265 µM) was 0.744 and the relative viability ([8]; first compound 4 µM) was 0.705. For the same compound, the relative viability ([9]; first compound 0.04 µM) was 0.906, the relative viability ([9]; first compound 0.1265 µM) was 0.804 and the relative viability ([9]; first compound 0.4 µM) was 0.833. The relative viability ([9]; first compound 1.265 µM) was 0.741, the relative viability ([9]; first compound 4 µM) was 0.875 and the relative viability ([10]; first compound 0.04 µM) was 0.45. The relative viability ([10]; first compound 0.1265 µM) was 0.398, the relative viability ([10]; first compound 0.4 µM) was 0.552 and the relative viability ([10]; first compound 1.265 µM) was 0.531. For the same compound, the relative viability ([10]; first compound 4 µM) was 0.42, the relative viability ([11]; first compound 0.04 µM) was 0.712 and the relative viability ([11]; first compound 0.1265 µM) was 0.738. The relative viability ([11]; first compound 1.265 µM) was 0.728, the relative viability ([11]; first compound 4 µM) was 0.625 and the relative viability ([12]; first compound 0.04 µM) was 0.262. The relative viability ([12]; first compound 0.1265 µM) was 0.282, the relative viability ([12]; first compound 0.4 µM) was 0.358 and the relative viability ([12]; first compound 1.265 µM) was 0.307. For the same compound, the relative viability ([12]; first compound 4 µM) was 0.277, the relative viability ([13]; first compound 0.04 µM) was 0.632 and the relative viability ([13]; first compound 0.1265 µM) was 0.634. It also gave a relative viability ([13]; first compound 0.4 µM) of 0.597, a relative viability ([13]; first compound 1.265 µM) of 0.651 and a relative viability ([13]; first compound 4 µM) of 0.604. For the same compound, the relative viability ([14]; first compound 0.04 µM) was 0.942, the relative viability ([14]; first compound 0.1265 µM) was 0.949 and the relative viability ([14]; first compound 0.4 µM) was 0.937. For the same compound, the relative viability ([14]; first compound 1.265 µM) was 0.792, the relative viability ([14]; first compound 4 µM) was 0.879 and the relative viability ([15]; first compound 0.04 µM) was 0.852. The relative viability ([15]; first compound 0.1265 µM) was 0.815, the relative viability ([15]; first compound 0.4 µM) was 0.883 and the relative viability ([15]; first compound 1.265 µM) was 0.802. For the same compound, the relative viability ([15]; first compound 4 µM) was 0.82, the relative viability ([16]; first compound 0.04 µM) was 0.778 and the relative viability ([16]; first compound 0.1265 µM) was 0.739. For the same compound, the relative viability ([16]; first compound 0.4 µM) was 0.688, the relative viability ([16]; first compound 1.265 µM) was 0.568 and the relative viability ([16]; first compound 4 µM) was 0.673. The relative viability ([17]; first compound 0.04 µM) was 0.685, the relative viability ([17]; first compound 0.1265 µM) was 0.819 and the relative viability ([17]; first compound 0.4 µM) was 0.883. The relative viability ([17]; first compound 1.265 µM) was 0.697, the relative viability ([17]; first compound 4 µM) was 0.544 and the relative viability ([18]; first compound 0.04 µM) was 0.673. For the same compound, the relative viability ([18]; first compound 0.1265 µM) was 0.468, the relative viability ([18]; first compound 0.4 µM) was 0.647 and the relative viability ([18]; first compound 1.265 µM) was 0.548. For the same compound, the relative viability ([18]; first compound 4 µM) was 0.564, the relative viability ([19]; first compound 0.04 µM) was 0.692 and the relative viability ([19]; first compound 0.1265 µM) was 0.693. It also gave a relative viability ([19]; first compound 0.4 µM) of 0.797, a relative viability ([19]; first compound 1.265 µM) of 0.62 and a relative viability ([19]; first compound 4 µM) of 0.625. The relative viability ([20]; first compound 0.04 µM) was 0.691, the relative viability ([20]; first compound 0.1265 µM) was 0.556 and the relative viability ([20]; first compound 0.4 µM) was 0.616. It also gave a relative viability ([20]; first compound 1.265 µM) of 0.592, a relative viability ([20]; first compound 4 µM) of 0.601 and a relative viability ([21]; first compound 0.04 µM) of 0.811. The relative viability ([21]; first compound 0.1265 µM) was 0.678, the relative viability ([21]; first compound 0.4 µM) was 0.747 and the relative viability ([21]; first compound 1.265 µM) was 0.684. The relative viability ([21]; first compound 4 µM) was 0.698, the relative viability ([22]; first compound 0.04 µM) was 0.654 and the relative viability ([22]; first compound 0.1265 µM) was 0.597. The relative viability ([22]; first compound 0.4 µM) was 0.634, the relative viability ([22]; first compound 1.265 µM) was 0.568 and the relative viability ([22]; first compound 4 µM) was 0.671. It also gave a relative viability ([23]; first compound 0.04 µM) of 0.752, a relative viability ([23]; first compound 0.1265 µM) of 0.698 and a relative viability ([23]; first compound 0.4 µM) of 0.771. It also gave a relative viability ([23]; first compound 1.265 µM) of 0.733, a relative viability ([23]; first compound 4 µM) of 0.672 and a relative viability ([24]; first compound 0.04 µM) of 0.714. It also gave a relative viability ([24]; first compound 0.1265 µM) of 0.574, a relative viability ([24]; first compound 0.4 µM) of 0.666 and a relative viability ([24]; first compound 1.265 µM) of 0.585. For the same compound, the relative viability ([24]; first compound 4 µM) was 0.59.
